{"source": "ChEMBL document CHEMBL3044789", "about": "“Comparing weed and crop seedling response to pre-emergence pendimethalin application in Corchorus olitorius and Abelmoschus esculentus” (Crop Prot, 2006)", "key": {"[1]": {"test_system": "Calopogonium mucunoides", "assay": "Herbicidal activity against Calopogonium mucunoides in Corchorus olitorius plots assessed as weed recovery at 0.99 kg a.i/ha after 2 weeks (reference value: 78.3 +/- 0.74 %)", "assay_type": "functional"}, "[2]": {"test_system": "Abelmoschus esculentus", "assay": "Phytotoxicity in Abelmoschus esculentus assessed as shoot length at 0.66 kg a.i/ha applied as solution after 7 weeks (reference value: 28.7 +/- 0.34 mm)", "assay_type": "organism-based", "settings": "in vivo, other, 1176 h"}, "[3]": {"test_system": "Ageratum conyzoides", "assay": "Herbicidal activity against Ageratum conyzoides in Abelmoschus esculentus plots assessed as weed recovery at 0.33 kg a.i/ha after 2 weeks (reference value: 60.1 +/- 0.46 %)", "assay_type": "functional"}, "[4]": {"test_system": "Talinum fruticosum", "assay": "Herbicidal activity against Talinum fruticosum in Abelmoschus esculentus plots assessed as minor weed growth at 0.99 kg a.i/ha after 2 weeks", "assay_type": "functional"}, "[5]": {"test_system": "Commelina diffusa", "assay": "Herbicidal activity against Commelina diffusa in Corchorus olitorius plots assessed as minor weed growth at 0.66 kg a.i/ha after 2 weeks", "assay_type": "functional"}, "[6]": {"test_system": "Abelmoschus esculentus", "assay": "Phytotoxicity in Abelmoschus esculentus assessed as seed germination at 0.66 kg a.i/ha applied as solution after 7 weeks (reference value: 85.7 +/- 0.36 %)", "assay_type": "organism-based", "settings": "in vivo, other, 1176 h"}, "[7]": {"test_system": "Chromolaena odorata", "assay": "Herbicidal activity against Chromolaena odorata in Corchorus olitorius plots assessed as weed cover at 0.99 kg a.i/ha after 4 weeks (reference value: 20.1+/- 0.57 %)", "assay_type": "functional"}, "[8]": {"test_system": "Synedrella nodiflora", "assay": "Herbicidal activity against Synedrella nodiflora in Corchorus olitorius plots assessed as weed cover at 0.33 kg a.i/ha after 2 weeks (reference value: 81.7 +/- 0.43 %)", "assay_type": "functional"}, "[9]": {"test_system": "Abelmoschus esculentus", "assay": "Phytotoxicity in Abelmoschus esculentus assessed as shoot length at 0.33 kg a.i/ha applied as solution after 7 weeks (reference value: 28.7 +/- 0.34 mm)", "assay_type": "organism-based", "settings": "in vivo, other, 1176 h"}, "[10]": {"test_system": "Synedrella nodiflora", "assay": "Herbicidal activity against Synedrella nodiflora in Corchorus olitorius plots assessed as weed cover at 0.66 kg a.i/ha after 7 weeks (reference value: 1.7 +/- 0.56 %)", "assay_type": "functional"}, "[11]": {"test_system": "Cyperus rotundus", "assay": "Herbicidal activity against Cyperus rotundus in Corchorus olitorius plots assessed as weed cover at 0.66 kg a.i/ha after 4 weeks (reference value: 20.1+/- 0.57 %)", "assay_type": "functional"}, "[12]": {"test_system": "Rottboellia cochinchinensis", "assay": "Herbicidal activity against Rottboellia cochinchinensis in Corchorus olitorius plots assessed as weed cover at 0.33 kg a.i/ha after 4 weeks (reference value: 20.1+/- 0.57 %)", "assay_type": "functional"}, "[13]": {"test_system": "Abelmoschus esculentus", "assay": "Phytotoxicity in Abelmoschus esculentus assessed as shoot length at 0.99 kg a.i/ha applied as solution after 7 weeks (reference value: 28.7 +/- 0.34 mm)", "assay_type": "organism-based", "settings": "in vivo, other, 1176 h"}}}
{"smiles": "CCC(CC)Nc1c([N+](=O)[O-])cc(C)c(C)c1[N+](=O)[O-]", "note": "[PENDIMETHALIN]", "values": [{"measurement": "Activity", "setting": "[1]", "result": 21.7, "unit": "%"}, {"measurement": "Activity", "setting": "[2]", "result": 14.7, "unit": "mm"}, {"measurement": "Activity", "setting": "[3]", "result": 39.2, "unit": "%"}, {"measurement": "Activity", "setting": "[4]", "result": "1 /m2"}, {"measurement": "Activity", "setting": "[5]", "result": "1 /m2"}, {"measurement": "Activity", "setting": "[6]", "result": 46, "unit": "%"}, {"measurement": "Activity", "setting": "[7]", "result": 48.3, "unit": "%"}, {"measurement": "Activity", "setting": "[8]", "result": 63.3, "unit": "%"}, {"measurement": "Activity", "setting": "[9]", "result": 14.5, "unit": "mm"}, {"measurement": "Activity", "setting": "[10]", "result": 100, "unit": "%"}, {"measurement": "Activity", "setting": "[11]", "result": 63.3, "unit": "%"}, {"measurement": "Activity", "setting": "[12]", "result": 73.3, "unit": "%"}, {"measurement": "Activity", "setting": "[13]", "result": 14.7, "unit": "mm"}]}
